# Assay results as given in patent publication US20260116845A1, “LIPIDS AND COMPOSITIONS THEREOF” (Kernal Biologics, Inc., priority 2023, published 2026).
# Columns and labels:
# Assay type in all cases: cell-based
# B16F10 Cell Line = assay: Transfection of B16F10 Cell Line with FLuc mRNA LNPs (ONE-Glo EX luciferase signal); settings: 200 ng Fluc mRNA-LNP, 24 hours
# Procedure: (§1) mRNA encapsulated lipid nanoparticles (mRNA LNPs) were formulated using microfluidic mixing with a PNI Ignite instrument. Briefly, lipids (ionizable: structural: helper: PEG) were dissolved in ethanol and mixed with and aqueous solution of mRNA. These mRNA-loaded dispersions were then neutralized via a buffer exchange with a pre-determined buffer overnight. Afterwards, formed LNPs were concentrated with Amicon filter centrifugation, filtered, concentration of mRNA determined through a ribogreen assay, and frozen at −80° C. until use.
# (§2) Cell lines were grown to confluence in T75 flasks using complete media of DMEM-F12 for AML12 and DMEM for both B16F10 and MC38.K. Cells were plated in a white 96 flat-well plate (AML12=20,000 cells/well, B16F10 and MC38.K=5,000 cells/well) with their respected media. Lipid nanoparticles were first diluted to 50 μg/ml using Opti-MEM and pre-incubated with mouse serum for 30 minutes to give an LNP concentration of 8 μg/ml. Cell media was replaced with Opti-MEM and LNPs were added to cells (200 ng of mRNA-LNP), placed back in the incubator, and allowed to transfect for 24 hours. Afterwards, 100 μl of Promega's ONE-Glo™ EX Luciferase Assay System or Promega's CellTiter-Glo® Luminescent Cell Viability Assay was added and mixed in their respective wells, followed by recording luminescence signals on a Thermo Scientific Varioskan LUX multimode microplate reader. The results are shown in FIG. 1, FIG. 2, FIG. 3, FIG. 4, FIG. 5, FIG. 6, FIG. 10, FIG. 11, and FIG. 21.
# MC38.K Cell Line = assay: Transfection of MC38.K Cell Line with FLuc mRNA LNPs (ONE-Glo EX luciferase signal); settings: 200 ng Fluc mRNA-LNP, 24 hours; for Total Luciferin Signal (RLU) In Vitro - MC38.K: Table 4
# Procedure: as §1, §2
# AML12 Cell Line = assay: Transfection of AML12 Cell Line with FLuc mRNA LNPs (ONE-Glo EX luciferase signal); settings: 200 ng Fluc mRNA-LNP, 24 hours
# Procedure: as §1, §2
SMILES,Total Luciferin Signal (RLU) In Vitro - B16F10 (B16F10 Cell Line; Table 4),Total Luciferin Signal (RLU) In Vitro - MC38.K (MC38.K Cell Line),Total Luciferin Signal (RLU) In Vitro - AML12 (AML12 Cell Line; Table 4),Total Luciferin Signal (RLU) In Vitro - B16F10 (B16F10 Cell Line; Table 5),Total Luciferin Signal (RLU) In Vitro-MC38 (MC38.K Cell Line; Table 5),Total Luciferin Signal (RLU) In Vitro - AML12 (AML12 Cell Line; Table 5)
"CCCCCCCCCOC(=O)CCCCCCCN(CCCCO)CCCCCCCCOC(=O)C(CCCC)CCCCCCF (stereo not drawn) [Compound 81, 8-((4-hydroxybutyl)(8-(nonyloxy)-8-oxooctyl)amino)octyl 2-butyl-8-fluorooctanoate]",5.85E+04 RLU,2.47E+06 RLU,4.91E+04 RLU,,,
"CCCCCCCC/C=C\CCCCCCC1CN(CCO)CC(CCCCCC(=O)OC(CCCCCCCC)CCCCCCC(C)C)O1 (stereo not drawn) [Compound 98, 2-methylheptadecan-9-yl (Z)-6-(6-(hexadec-7-en-1-yl)-4-(2-hydroxyethyl)morpholin-2-yl)hexanoate]",,,,1.27E+05 RLU,7.95E+04 RLU,4.38E+04 RLU
"CCCCCCCCCOC(=O)C(C)CCCCCCN(CCO)CCCCCCCCOC(=O)C(CCCC)CCCCCCF (stereo not drawn) [Compound 74, 8-((2-hydroxyethyl)(7-methyl-8-(nonyloxy)-8-oxooctyl)amino)octyl 2-butyl-8-fluorooctanoate]",6.66E+04 RLU,1.94E+05 RLU,2.80E+04 RLU,,,
"CCCCCCCCCOC(=O)CCCCCCCN(CCO)CCCCCCCC(=O)OC(CCCCCCCC)CCCCCCCCCl (stereo not drawn) [Compound 83, 1-chloroheptadecan-9-yl 8-((2-hydroxyethyl)(8-(nonyloxy)-8-oxooctyl)amino)octanoate]",4.41E+05 RLU,2.14E+06 RLU,1.85E+05 RLU,,,
CCCCCCCCC(CCCCCCCC)C(=O)OCCCCCCCN(CCCCCOC(=O)CCCCCCCCC(C)C)CCOC(=O)CCCN(C)C [Compound 13],2.12E+06 RLU,7.83E+05 RLU,1.44E+06 RLU,,,
CCCCCCCCCCCOC(=O)CCCCCN(CCO)CCCCCC(=O)OCCCCCCCCCCC [Compound 49],9.79E+03 RLU,2.99E+04 RLU,1.75E+04 RLU,,,
"CCCCCCCCC(CCCCCCCCF)C(=O)OCCCCCCCN(CCCCO)CCCCCCCOC(=O)C(C)CCCCCCCC(C)C (stereo not drawn) [Compound 89, 7-((7-((10-fluoro-2-octyldecanoyl)oxy)heptyl)(4-hydroxybutyl)amino)heptyl 2,10-dimethylundecanoate]",9.61E+06 RLU,3.88E+07 RLU,7.66E+06 RLU,,,
CCCCCCCCC(CCCCCCCC)OC(=O)CCCCCN(CCCCCC(=O)OCCCCCCCCCCC(C)C)CCOC(=O)CCCN(C)C [Compound 17],2.64E+06 RLU,1.15E+06 RLU,6.34E+05 RLU,,,
CCCCCCCCC(CCCCCCCF)OC(=O)CCCCCCCN(CCO)CCCCCC(=O)OCCCCCCCCC(C)C (stereo not drawn) [Compound 28],2.34E+05 RLU,5.09E+05 RLU,1.65E+05 RLU,,,
"CCCCCCCCCOC(=O)CCCCCCCN(CCO)CCCCCCCC(=O)OCC(CCCCCCCC)CCCCCCCCF (stereo not drawn) [Compound 80, 10-fluoro-2-octyldecyl 8-((2-hydroxyethyl)(8-(nonyloxy)-8-oxooctyl)amino)octanoate]",2.97E+06 RLU,1.95E+07 RLU,3.01E+06 RLU,,,
